This is an account of results in patent US20250205342A1, “IRAK DEGRADERS AND USES THEREOF” (Kymera Therapeutics, Inc., priority 2022, published 2025).

Some results are limits rather than exact numbers.

The target in experiment [1] is T1, IRAK4 (Homo sapiens, UniProt Q9NWZ3).
T1 sequence (Q9NWZ3 1-460): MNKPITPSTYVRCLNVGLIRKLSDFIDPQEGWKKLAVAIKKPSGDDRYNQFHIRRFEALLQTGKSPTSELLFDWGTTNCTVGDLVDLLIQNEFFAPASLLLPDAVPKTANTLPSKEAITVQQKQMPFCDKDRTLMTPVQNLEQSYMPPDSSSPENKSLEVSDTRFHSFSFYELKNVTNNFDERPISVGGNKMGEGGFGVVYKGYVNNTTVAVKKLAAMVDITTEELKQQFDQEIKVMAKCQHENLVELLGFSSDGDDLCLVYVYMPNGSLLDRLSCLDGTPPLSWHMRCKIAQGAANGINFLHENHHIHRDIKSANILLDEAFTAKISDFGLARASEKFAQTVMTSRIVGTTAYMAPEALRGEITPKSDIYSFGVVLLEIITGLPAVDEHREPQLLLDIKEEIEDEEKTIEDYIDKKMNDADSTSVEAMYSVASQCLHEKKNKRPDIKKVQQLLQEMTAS
As to the kind of experiment: hPBMC IRAK4 degradation flow assay (monocytes). Conditions: CD14 positive monocytes, 20 h, read-out: hPBMC monocyte DC50 at 20 h. In kind it is cell-based. Set-up: endogenous in cells; host or cells: human PBMCs (monocytes, CD14 positive gate). On the procedure: In the hPBMC IRAK4 degradation flow assay, frozen PBMCs were thawed into RPMI with 10% FBS and allowed to recover. On the same day as thawed, PBMCs were plated in 96 well plate, 90 μL per well. Compound plates were prepared and a 10 point, 5-fold dilution was performed with a final DMSO concentration of 0.1%. Compound 10 μL per well was added, sealed and incubated at 37° C., 5% CO2 for 20 hours (for 4 hour treatment, compounds were prepared and added the following day). Following the treatment incubation period (day 1), 1.6% PFA was added to PBMC plate and placed on plate shaker for 30 seconds and incubated for 10 mins at room temperature. Cells were spun down and washed two times with PBS/0.5% BSA, aspirated to pellet and placed into −80° C. freezer until further processing for flow. On the flow run day, PBMC plates were thawed and samples were transferred to PCR plates. The pre-perm staining cocktail (CD3 Ax488/CD8 BUV805/CD14 BUV395/CD16/56 BV711/CD19 BV785) was added to samples and incubated for 30 minutes at room temperature. Samples were washed two times and permeabilized with methanol for 10 minutes at 4° C. Samples were washed two times and the post-perm staining cocktail (CD4 PE/IRAK4 Ax647 BD #560315) was added and incubated for 30 minutes at room temperature. Samples were washed two times with PBS/BSA and run on a BD LSRFortessa. Mononuclear cells are gated by SSCH/FSCH and single cells. Monocytes are then gated through CD14 positive gate and lymphocytes are gated through CD14 negative gate. To determine absolute DC50 and max degradation values, MFI values were normalized to DMSO max and 20 hour 10 µM min control. Twenty hour dose curves were calculated using a 4 parameter logistic regression curve fit, no constraints (Top doses were removed if hook effects were observed and the bottom was constrained to 0).
(§1) IRAK4 MSD degradation in OCI-LY10 results at 4 and 24 hrs and hPBMC at 20 hrs for compounds of the invention are presented in Table 3. The letter codes for IRAK4 DC50 include: A (<0.1 μM), B (0.1-1.0 μM), C(>1.0-10.0 μM), D (>10.0 μM or not determined).

Experiment [2] concerns the target T1, IRAK4. As to the kind of experiment: IRAK4 degradation in OCI-LY10 (MSD, Meso Scale Discovery). In kind it is cell-based. More on the design: endogenous in cells; host or cells: OCI-LY10. Conditions: OCI-LY10 cells, 24 h. On the procedure:
Degradation of IRAK4 in OCI-LY10 was quantitatively measured using Meso Scale Discovery technology. OCI-LY10 cells were seeded in 96-well plates (Corning 3799) with a density of 300,000 cells per well in 100 μL fresh media. Compounds were then added to the assay plates with a final top concentration of 1 to 10 μM in a 1:3 dilution series with total of 8 doses. The assay plates were then incubated for 4 to 24 hours at 37° C. under 5% CO2. The assay plates were then centrifuged for 5 minutes and the cell pellets were treated with 100 μL/well RIPA lysis buffer (Boston BioProducts BP-115D) with proteinase inhibitors. To prepare MSD assay plates (Meso Scale Discovery Catalog number L15XA-3), the plates were coated with 2 ug/mL capture antibody (mouse Anti-IRAK4 antibody [2H9], ab119942) in PBS, at 40 μL/well. The plates were then incubated overnight at […], washed 3 times with 150 μL/well TBST buffer (Cell Signaling Technology, Catalog number 9997S) and blocked with 150 μL/well blocking buffer (Meso Scale Discovery Catalog number R^93BA-4). Cell lysates were then added to MSD assay plates and the plates were incubated at room temperature for 1 hour. The plates were then washed 3 times with 150 μL/well TBST buffer and 25 μL/well primary detection antibody (rabbit Anti-IRAK4 antibody [Y279], from Abcam. Catalog number ab32511, 1 μg/mL). The assay plates were then incubated at room temperature for 1 hour, washed 3 times with 150 μL/well TBST buffer and 25 μL/well secondary detection antibody, SULFO-TAG anti-rabbit antibody were added (anti-rabbit antibody from Meso Scale Discovery, Catalog number R^32AB-1, 1 μg/mL). The assay plates were then incubated at room temperature for 1 hour, washed 3 times with 150 μL/well TBST buffer, and 150 μL/well MSD reading buffer (Meso Scale Discovery catalog number R^92TC-2) was added. The plates were then analyzed by a MSD reader (Meso Scale Discovery, Model Quick Plex SQ 120). The data was then analyzed by software Prism 7.0 from GraphPad and the dose-depended IRAK4 degradation were fit using a three-parameter logistic equation to calculate DC50.
as §1

In the case of `O=C(O)Cn1cc(NC(=O)c2cccc(-c3cncc(CCCCCCCCCNC[C@H]4CC[C@H](n5cc(NC(=O)c6cnn7ccc(N8C[C@H]9C[C@@H]8CO9)nc67)c(C(F)F)n5)CC4)c3)c2)ccc1=O` [Compound I-85], the 50% degradation concentration (DC50) in experiment [1] and in experiment [2] was greater than 10 µM each time.

On to `CCOC(=O)Cn1cc(NC(=O)[C@H]2CCCN(c3cncc(NCCOCCOCCOCCOCCNC[C@H]4CC[C@H](n5cc6cc(NC(=O)c7cccc(C(F)(F)F)n7)c(OC)cc6n5)CC4)c3)C2)ccc1=O` [Compound I-13], for which the 50% degradation concentration (DC50) in experiment [1] is 1 to 10 µM; in experiment [2], greater than 10 µM.

As to `CCOC(=O)Cn1cc(NC(=O)[C@H]2CCCN(c3cncc(NCCOCCOCCNC[C@H]4CC[C@H](n5cc6cc(NC(=O)c7cccc(C(F)(F)F)n7)c(OC)cc6n5)CC4)c3)C2)ccc1=O` [Compound I-5], the DC50 in experiment [1] was 1 to 10 µM; in experiment [2] it was greater than 10 µM.

On to `COc1cc2nn([C@H]3CC[C@H](CNCCCCc4cncc(N5CCC[C@H](C(=O)Nc6ccc(=O)n(CC(=O)O)c6)C5)c4)CC3)cc2cc1NC(=O)c1cccc(C(F)(F)F)n1` [Compound I-25], for which the half-maximal degradation concentration (DC50) in experiment [1] and in experiment [2] was greater than 10 µM each time.

For `COc1cc2nn([C@H]3CC[C@H](CNCCOCCOCCOCCOCCOc4cncc(N5CCC[C@H](C(=O)Nc6ccc(=O)n(CC(=O)O)c6)C5)c4)CC3)cc2cc1NC(=O)c1cccc(C(F)(F)F)n1` [Compound I-38], the half-maximal degradation concentration (DC50) in experiment [1] was 1 to 10 µM; in experiment [2], greater than 10 µM.

On to `CC(C)(O)c1cc2nn([C@H]3CC[C@H](CNCCCCCCCCCc4cccc5c(-c6cccc(C(=O)Nc7ccc(=O)n(CC(=O)O)c7)c6)cncc45)CC3)cc2cc1NC(=O)c1cccc(C(F)(F)F)n1` [Compound I-50], for which the half-maximal degradation concentration (DC50) in experiment [1] and in experiment [2] was greater than 10 µM in each case.

Take `CC(C)(O)c1cc2nn([C@H]3CC[C@H](CNCCCCCCCCCc4cncc(-c5cccc(C(=O)Nc6ccc(=O)n(CC(=O)O)c6)c5)c4)CC3)cc2cc1NC(=O)c1cccc(C(F)(F)F)n1` [Compound I-84]: the half-maximal degradation concentration (DC50) in experiment [1] is 1 to 10 µM; in experiment [2], greater than 10 µM.

Regarding `CCOC(=O)Cn1cc(NC(=O)[C@H]2CCCN(c3cncc(CCNC[C@H]4CC[C@H](n5cc(NC(=O)c6cnn7ccc(N8C[C@H]9C[C@@H]8CO9)nc67)c(C(F)F)n5)CC4)c3)C2)ccc1=O` [Compound I-36], the DC50 is 1 to 10 µM in experiment [1] and greater than 10 µM in experiment [2].

With `COc1cc2nn([C@H]3CC[C@H](CN(C)CC4CCN(c5cncc(N6CCCC(C(=O)Nc7ccc(=O)n(CC(=O)O)c7)C6)c5)CC4)CC3)cc2cc1NC(=O)c1cccc(C(F)(F)F)n1` (stereo partly drawn) [Compound I-19], the 50% degradation concentration (DC50) in experiment [1] and in experiment [2] was greater than 10 µM each time.

On to `CCOC(=O)Cn1cc(NC(=O)[C@H]2CCCN(c3cncc(C4CCN(C[C@H]5CC[C@H](n6cc7cc(NC(=O)c8cccc(C(F)(F)F)n8)c(OC)cc7n6)CC5)CC4)c3)C2)ccc1=O` [Compound I-17], for which the half-maximal degradation concentration (DC50) is 1 to 10 µM in experiment [1] and greater than 10 µM in experiment [2].

`O=C(O)Cn1cc(NC(=O)[C@H]2CCCN(c3cncc(OCCOCCOCCOCCOCCNC[C@H]4CC[C@H](n5cc(NC(=O)c6cnn7ccc(N8C[C@H]9C[C@@H]8CO9)nc67)c(C(F)F)n5)CC4)c3)C2)ccc1=O` [Compound I-37]: the 50% degradation concentration (DC50) in experiment [1] was 1 to 10 µM; in experiment [2] it was greater than 10 µM.

Regarding `CCOC(=O)Cn1cc(NC(=O)[C@H]2CCCN(c3cncc(C#CCOC4CCN(C[C@H]5CC[C@H](n6cc(NC(=O)c7cnn8ccc(N9C[C@H]%10C[C@@H]9CO%10)nc78)c(C(F)F)n6)CC5)CC4)c3)C2)ccc1=O` [Compound I-23], the values for the DC50 in experiment [1] and in experiment [2] were 1 to 10 µM and greater than 10 µM, respectively.

`CCOC(=O)Cn1cc(NC(=O)c2cc(CCCCCCNC[C@H]3CC[C@H](n4cc(NC(=O)c5cnn6ccc(N7C[C@H]8C[C@@H]7CO8)nc56)c(C(F)F)n4)CC3)cc(-c3cccnc3)c2)ccc1=O` [Compound I-98]: the DC50 in experiment [1] and in experiment [2] was greater than 10 µM throughout.

As to `CCOC(=O)Cn1cc(NC(=O)c2cccc3c2ccn3CCCCCCNC[C@H]2CC[C@H](n3cc(NC(=O)c4cnn5ccc(N6C[C@H]7C[C@@H]6CO7)nc45)c(C(F)F)n3)CC2)ccc1=O` [Compound I-61], the 50% degradation concentration (DC50) in experiment [1] was 1 to 10 µM; in experiment [2] it was greater than 10 µM.

`CCOC(=O)Cn1cc(NC(=O)[C@H]2CCCN(c3cncc(OCCOCCOCCNC[C@H]4CC[C@H](n5cc(NC(=O)c6cnn7ccc(N8C[C@H]9C[C@@H]8CO9)nc67)c(C(F)F)n5)CC4)c3)C2)ccc1=O` [Compound I-45]: the DC50 was 1 to 10 µM in experiment [1] and greater than 10 µM in experiment [2].

`CCOC(=O)Cn1cc(NC(=O)[C@H]2CCCN(c3cncc(N4CCC(CN(C)C[C@H]5CC[C@H](n6cc(NC(=O)c7cnn8ccc(N9C[C@H]%10C[C@@H]9CO%10)nc78)c(C(F)F)n6)CC5)CC4)c3)C2)ccc1=O` [Compound I-34]: the DC50 in experiment [1] and in experiment [2] was greater than 10 µM each time.

With `CCOC(=O)Cn1cc(NC(=O)c2cc(CCCCCCNC[C@H]3CC[C@H](n4cc5cc(NC(=O)c6cccc(C(F)(F)F)n6)c(C(C)(C)O)cc5n4)CC3)cc(-c3cccnc3)c2)ccc1=O` [Compound I-95], the DC50 in experiment [1] and in experiment [2] was greater than 10 µM each time.

As for `CC(C)(O)c1cc2nn([C@H]3CC[C@H](CNCCCc4cc(C(=O)Nc5ccc(=O)n(CC(=O)O)c5)cc(-c5cccnc5)c4)CC3)cc2cc1NC(=O)c1cccc(C(F)(F)F)n1` [Compound I-80], the DC50 in experiment [1] and in experiment [2] was greater than 10 µM in each case.

For `CCOC(=O)Cn1cc(NC(=O)c2cccc3c2ccn3CCCNC[C@H]2CC[C@H](n3cc(NC(=O)c4cnn5ccc(N6C[C@H]7C[C@@H]6CO7)nc45)c(C(F)F)n3)CC2)ccc1=O` [Compound I-81], the DC50 in experiment [1] and in experiment [2] was greater than 10 µM throughout.

With `O=C(O)Cn1cc(NC(=O)[C@H]2CCCN(c3cncc(CCNC[C@H]4CC[C@H](n5cc(NC(=O)c6cnn7ccc(N8C[C@H]9C[C@@H]8CO9)nc67)c(C(F)F)n5)CC4)c3)C2)ccc1=O` [Compound I-28], the half-maximal degradation concentration (DC50) in experiment [1] and in experiment [2] was greater than 10 µM each time.

As for `CCOC(=O)Cn1cc(NC(=O)c2cccc(-c3cncc(CCCCCCNC[C@H]4CC[C@H](n5cc(NC(=O)c6cnn7ccc(N8C[C@H]9C[C@@H]8CO9)nc67)c(C(F)F)n5)CC4)c3)c2)ccc1=O` [Compound I-99], the DC50 in experiment [1] and in experiment [2] was greater than 10 µM throughout.

The DC50 is the midpoint of the concentration-degradation curve.
